Source: US20080015194A1, “METHODS AND COMPOSITIONS OF TARGETED DRUG DEVELOPMENT” (priority 2006, published 2008)
Like-named read-outs stand apart in the source and are kept apart here.

Key:
EGFR = biological target: T1, EGFR (Rattus norvegicus, UniProt G3V6K6); test: Inhibition of [125I]EGF binding to EGFR, radioligand filtration assay (NovaScreen); settings: rat liver membranes
T1 construct: Receptor source was rat liver membranes; tissue NovaScreen BioSciences; host or cells: rat liver membranes
T1 sequence (G3V6K6 25-1209): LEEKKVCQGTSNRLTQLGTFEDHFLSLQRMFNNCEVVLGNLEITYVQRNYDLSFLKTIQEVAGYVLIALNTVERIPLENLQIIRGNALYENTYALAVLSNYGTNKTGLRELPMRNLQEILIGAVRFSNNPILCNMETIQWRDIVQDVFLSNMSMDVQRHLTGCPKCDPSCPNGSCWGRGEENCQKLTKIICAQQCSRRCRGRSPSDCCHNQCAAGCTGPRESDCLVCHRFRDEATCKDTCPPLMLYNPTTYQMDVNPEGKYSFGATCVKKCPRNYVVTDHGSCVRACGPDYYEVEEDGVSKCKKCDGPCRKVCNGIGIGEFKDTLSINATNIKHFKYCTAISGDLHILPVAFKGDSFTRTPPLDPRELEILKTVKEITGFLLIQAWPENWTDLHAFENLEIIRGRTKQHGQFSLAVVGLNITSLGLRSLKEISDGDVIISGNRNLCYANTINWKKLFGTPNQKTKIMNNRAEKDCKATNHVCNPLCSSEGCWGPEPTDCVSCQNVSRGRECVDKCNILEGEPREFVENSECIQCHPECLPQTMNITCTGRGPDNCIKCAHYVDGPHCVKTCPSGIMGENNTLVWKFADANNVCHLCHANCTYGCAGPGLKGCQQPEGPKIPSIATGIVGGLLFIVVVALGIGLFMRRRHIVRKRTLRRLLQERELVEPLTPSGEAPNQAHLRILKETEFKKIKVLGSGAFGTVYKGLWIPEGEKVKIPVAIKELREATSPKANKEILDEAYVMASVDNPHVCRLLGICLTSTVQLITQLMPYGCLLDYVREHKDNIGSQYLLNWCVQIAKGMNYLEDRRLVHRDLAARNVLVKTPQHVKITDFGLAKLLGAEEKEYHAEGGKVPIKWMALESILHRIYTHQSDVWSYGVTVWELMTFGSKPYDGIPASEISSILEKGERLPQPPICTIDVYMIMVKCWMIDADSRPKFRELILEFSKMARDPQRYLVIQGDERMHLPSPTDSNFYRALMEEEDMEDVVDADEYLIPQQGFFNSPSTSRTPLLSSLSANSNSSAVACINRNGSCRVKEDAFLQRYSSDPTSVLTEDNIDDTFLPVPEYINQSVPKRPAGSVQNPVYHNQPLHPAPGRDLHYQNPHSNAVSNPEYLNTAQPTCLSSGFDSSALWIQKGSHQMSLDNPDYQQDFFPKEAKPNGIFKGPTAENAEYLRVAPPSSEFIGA
Description: Identified compounds, representing various pharmacaphore models, were tested for ability to inhibit EGFR at 25 μM.
AD4-compounds were identified using pharmacophore models (see Example 4) and then were docked with the binding site of EGFR (SEQ ID NO: 1) that is recognized by defined CDRs of cetuximab. The inhibition of epidermal growth factor binding by AD4-compounds was then determined (NovaScreen BioSciences, Hanover, Md.). Inhibition of EGF binding was determined at 25 μM concentration.
Receptor source was rat liver membranes. The radioligand was [^125I]EGF ([…]) at a final ligand concentration of 0.36 nM. A non-specific determinant was used as EGF—[100 nM]. The reference compound and positive control was EGF. Reactions were carried out in 10 mM HEPES (pH 7.4) containing 0.1% BSA at 25 °C for 60 minutes. The reaction was terminated by rapid vacuum filtration onto glass fiber filters. Radioactivity trapped onto the filters was determined and compared to control values to ascertain any interactions of test compounds with the EGF binding site. The EGF inhibitor assays were modified from, for example, Mukku (1984) J. Biol. Chem. 259, 6543-6546; Duh et al. (1990) World J. Surgery 14, 410-418; Lokeshwar et al. (1989) J. Biol. Chem. 264(32), 19318-19326.

[1] = biological target: EGF receptor of rat liver membranes (rat); test: radioligand binding of [125I]EGF to rat liver membranes, filtration (NovaScreen)
[2] = inhibition of [125I]EGF binding at 25 μM, read-out: EGFR INHIBITION
[3] = 25 μM compound, [125I]EGF 0.36 nM, read-out: inhibition of binding of EGF to EGFR
[4] = 25 μM compound, [125I]EGF 0.36 nM

| Compound | inhibition at 25 µM (EGFR; [2]) [%] | other results |
| --- | --- | --- |
| NC(=O)CCC(Nc1ncnc2ccccc12)C(=O)O (stereo not shown) [AD4-1148] | 43.2 |  |
| Cc1ccc(Cl)cc1NC(=O)CC(C(=O)O)N1CCNCC1 (stereo not shown) [AD4-1165] | 47.2 |  |
| O=C(O)CC(NCc1ccccc1)C(=O)Nc1ccc(Cl)cc1 (stereo not shown) [AD4-1171] | 47.2 |  |
| CC1=C(C(=O)Nc2cccc(C)c2)C(c2ccc(O)cc2)NC(=O)N1 (stereo not shown) [AD4-1010, 4-(4-hydroxyphenyl)-6-methyl-N-(3-methylphenyl)-2-oxo-1,2,3,4-tetrahydro-5pyrimidinecarboxamide] | 39.4 | inhibition at 25 µM (EGFR; [3]): 39.4% |
| O=C(O)Cn1nnc(-c2ccc(OCc3ccccc3)cc2)n1 [AD4-1020, {5-[4-(benzyloxy)phenyl]-2H-tetrazol-2-yl}acetic acid] | 47.8 | inhibition of binding of EGF to EGFR (EGFR; [4]): 48%; inhibition at 25 µM (EGFR; [3]): 47.8% |
| Cc1ccc(OCCn2c(SCCO)nc3c(N)ncnc32)cc1 [AD4-1128] | 38 |  |
| CN(C1=NC(=O)C(CC(=O)O)S1)c1ccc(O)cc1 (stereo not shown) [AD4-1038, {2-[(4-Hydroxy-phenyl)-methyl-amino]-4-oxo-4,5-dihydro-thiazol-5-yl}-acetic acid] | 70.9 | inhibition at 25 µM (EGFR; [3]): 70.7% |
| O=C(O)C[C@H](NCc1cccnc1)C(=O)Nc1ccc(Cl)cc1 [AD4-1025, N^1-(4-chlorophenyl)-N^2-(3-pyridinylmethyl)-alpha-asparagine] | 75.7 | inhibition of binding of EGF to EGFR (EGFR; [4]): 76%; inhibition at 25 µM (EGFR; [3]): 75.7% |
| CCCC(NC(=O)CCc1c(C)c2ccc(O)cc2oc1=O)C(=O)O (stereo not shown) [AD4-1047] | 32.7 |  |
| Oc1ccc(/C=N/N=C/c2ccc(O)cc2O)c(O)c1 [AD4-1018] | 36.2 |  |
| Cc1cccc(NC(=O)C(CC(=O)O)NCc2ccccc2)c1 (stereo not shown) [AD4-1155] | 30.1 |  |
| Cc1ccc(OCC(=O)Nc2ccc(O)cc2C(=O)O)c(C)c1 [AD4-1132, 2-{[(2,4-dimethylphenoxy)acetyl]amino}-5-hydroxybenzoic acid] | 59.6 | inhibition at 25 µM (EGFR; [3]): 59.6% |
| O=C(CSc1ccccc1)Nc1ccc(O)c(C(=O)O)c1 [AD4-1178] | 34.6 |  |
| O=C(N/N=C/c1cc(Cl)ccc1O)c1ccc(O)cc1 [AD4-1017] | 35 |  |
| CCOc1ccc(/C(C)=N/N=C2\NC(=O)C(CC(=O)O)S2)cc1 (stereo not shown) [AD4-1016] | 37.8 |  |
| O=C(NC(=S)Nc1ccc(O)c(C(=O)O)c1)c1ccccc1 [AD4-1123] | 34.1 |  |
| COc1cccc(OCC(=O)Nc2ccccc2C(=O)O)c1 [AD4-1030] | 37.7 | inhibition at 25 µM (EGFR; [3]): 38% |
| O=C(O)CCCN1C(=O)/C(=C/c2cccc(O)c2)SC1=S [AD4-1109] | 36.5 |  |
| Cc1cc(C)c(OCC(=O)Nc2cc(O)ccc2C(=O)O)cc1C [AD4-1022] | 38.6 | inhibition at 25 µM (EGFR; [3]): 39% |
| NC(=O)C1CCN(C2CC(=O)N(c3ccc(C(=O)O)cc3)C2=O)CC1 (stereo not shown) [AD4-1108] | 33.1 |  |
| O=C(O)CCc1ccc(-c2ccc(Cl)cc2)n1CCC(=O)O [AD4-1027] | 38.6 | inhibition at 25 µM (EGFR; [3]): 39% |

| Compound | inhibition at 25 µM (EGFR; [2]) [%] | other results |
| --- | --- | --- |
| O=C(CC1SC(Nc2ccc(O)cc2)=NC1=O)Nc1ccc(Br)cc1 (stereo not shown) [AD4-1140] | 36.5 |  |
| Cn1c(=O)c2c(nc(SCCCO)n2Cc2ccccc2)n(C)c1=O [AD4-1060] | 30.2 |  |
| O=C(O)COc1ccc(C(=O)NCc2ccccc2)cc1 [AD4-1150] | 43.1 |  |
| CCOc1cc(C=C2C(=O)NC(=O)NC2=O)ccc1CC(=O)O [AD4-1121] | 35 |  |
| Oc1ccc(-c2csc(NCc3ccco3)n2)c(O)c1 [AD4-1133] | 37.3 |  |
| O=C(O)COc1ccc(-c2nnn(CC(=O)O)n2)cc1 [AD4-1169] | 31.4 |  |
| CCN(CC)c1ccc(NC(=O)C(CC(=O)O)NCc2ccccc2)cc1 (stereo not shown) [AD4-1167] | 30.6 |  |
| [125I]EGF (epidermal growth factor radioligand) |  | Bmax (receptor number) (fmol/mg tissue (wet weight)) [1]: 43; Kd [1]: 1.04 nM |
| O=C(O)c1ccccc1SC1CC(=O)N(c2ccc(O)cc2)C1=O (stereo not shown) [AD4-1141] | 46.7 |  |
| Cc1ccc(C(=O)Nc2ccc(C(=O)NCCCC(=O)O)cc2)o1 [AD4-1139] | 39 |  |
| CCNc1nc(N)nc(Oc2ccc(OCc3ccccc3)nn2)n1 [AD4-1176] | 34 |  |
| COC(=O)c1cc(NC(=O)CSc2nc(C)cc(=O)[nH]2)cc(C(=O)OC)c1 [AD4-1147] | 43.4 |  |
| O=C(O)Cn1nnc(-c2ccc(OCc3cccc(C(F)(F)F)c3)cc2)n1 [AD4-1164] | 33.3 |  |
| CC(Oc1ccc(C(=O)NCCc2ccccc2)cc1)C(=O)O (stereo not shown) [AD4-1021] | 43.4 | inhibition at 25 µM (EGFR; [3]): 43% |
| CN(Cc1ccccc1)S(=O)(=O)c1ccc(O)c(C(=O)O)c1 [AD4-1153] | 34 |  |
| O=C1Nc2ccccc2C1(O)C/C(=N/O)c1ccc2c(c1)OCCO2 (stereo not shown) [AD4-1124] | 33.1 |  |
| Cc1cccc(NC(=O)CC(NCCN2CCOCC2)C(=O)O)c1 (stereo not shown) [AD4-1166] | 31.2 |  |
| O=C(O)Cn1nnc(-c2ccc(OCc3c(F)cccc3Cl)cc2)n1 [AD4-1175] | 35.1 |  |
| O=C(O)CC(NCc1ccco1)C(=O)Nc1ccc2ccccc2c1 (stereo not shown) [AD4-1149] | 33.6 |  |
| O=C(CC(NCC1CCCO1)C(=O)O)Nc1cccc(Cl)c1 (stereo not shown) [AD4-1039] | 31.7 | inhibition at 25 µM (EGFR; [3]): 32% |
| COc1cc(/C=N/NC(=O)c2ccc(O)cc2O)ccc1O [AD4-1057] | 30.1 |  |
